Measurements as given in publication PMC8212708 (Clinical and Translational Science, 2021).

The molecules below were run against T1, human glucose transporter-1 (hGLUT-1) (Homo sapiens, UniProt P11166) (assay: inhibition of [3H]2-DG). Details: FaDu, read-out: % inhibition at 25 μM.
T1 sequence (P11166 1-492): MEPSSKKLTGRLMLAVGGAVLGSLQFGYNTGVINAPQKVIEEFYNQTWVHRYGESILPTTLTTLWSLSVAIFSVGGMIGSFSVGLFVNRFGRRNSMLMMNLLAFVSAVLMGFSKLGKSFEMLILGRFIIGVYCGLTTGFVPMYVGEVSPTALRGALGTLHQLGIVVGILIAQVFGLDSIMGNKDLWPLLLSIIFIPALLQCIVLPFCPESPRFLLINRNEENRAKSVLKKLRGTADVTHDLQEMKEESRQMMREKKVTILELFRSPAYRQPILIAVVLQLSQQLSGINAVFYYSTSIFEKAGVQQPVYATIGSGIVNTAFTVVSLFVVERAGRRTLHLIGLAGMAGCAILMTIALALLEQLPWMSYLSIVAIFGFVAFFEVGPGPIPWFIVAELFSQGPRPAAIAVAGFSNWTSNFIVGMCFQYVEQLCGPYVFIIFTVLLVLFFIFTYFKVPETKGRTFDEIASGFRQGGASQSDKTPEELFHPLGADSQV
Format: cell-based

| Structure (SMILES) | inhibition at 25 µM |
| --- | --- |
| C#Cc1cccc(Nc2ncnc3cc(OC)c(OCCCCCCC(=O)NO)cc23)c1 [CUDC-101] | 80 to 90% |
| CC(C)c1cc(-c2n[nH]c(=O)n2-c2ccc3c(ccn3C)c2)c(O)cc1O [Ganetespib] | > 50% |
| O=c1c(-c2ccc(O)cc2)coc2cc(O)cc(O)c12 [genistein] | > 50% |
